Assay results published in ChEMBL document CHEMBL1141760, “Polyhydroxylated spirostanol saponins from the tubers of Dioscorea polygonoides” (J Nat Prod, 2005).

Tests used:
[1] = system: HL-60; assay: Cytotoxicity against human HL60 cells by MTT assay; assay type: functional, cell-based
[2] = system: HSC-2; assay: Cytotoxicity against human HSC2 cells by MTT assay; assay type: functional, cell-based

SMILES	IC50 [1] [µM]	IC50 [2] [µM]
C[C@H]1CO[C@@]2(O[C@H]3C[C@H]4[C@@H]5CC=C6C[C@@H](O[C@@H]7O[C@H](CO)[C@@H](O)[C@H](O)[C@H]7O[C@@H]7O[C@@H](C)[C@H](O)[C@@H](O)[C@H]7O)CC[C@]6(C)[C@H]5C[C@H](O)[C@]4(C)[C@@]3(O)[C@@H]2C)[C@@H](O)C1	> 200	> 200
C[C@H]1CO[C@@]2(O[C@H]3C[C@H]4[C@@H]5CC=C6C[C@@H](O)CC[C@]6(C)[C@H]5C[C@H](O)[C@]4(C)[C@@]3(O)[C@@H]2C)[C@@H](O)C1	> 200	> 200
C[C@@H]1O[C@@H](O[C@H]2[C@H](O[C@H]3CC[C@@]4(C)C(=CC[C@H]5[C@@H]6C[C@@H]7O[C@@]8(OC[C@H](C)[C@@H](O)[C@@H]8O)[C@@H](C)[C@@H]7[C@@]6(C)CC[C@@H]54)C3)O[C@H](CO)[C@@H](O)[C@@H]2O)[C@H](O)[C@H](O)[C@H]1O	> 200	> 200
C[C@H]1CO[C@@]2(O[C@H]3C[C@@]4(O)[C@@H]5CC=C6C[C@@H](O)CC[C@]6(C)[C@H]5CC[C@]4(C)[C@@]3(O)[C@@H]2C)[C@@H](O)C1	> 200	> 200
C[C@H]1CO[C@@]2(O[C@H]3C[C@@]4(O)[C@@H]5CC=C6C[C@@H](O[C@@H]7O[C@H](CO)[C@@H](O)[C@H](O)[C@H]7O[C@@H]7O[C@@H](C)[C@H](O)[C@@H](O)[C@H]7O)CC[C@]6(C)[C@H]5CC[C@]4(C)[C@@]3(O)[C@@H]2C)[C@@H](O)C1	> 200	> 200
